Values of other authors, collected in publication PMC11437099 (Nature Communications, 2024).
Where two headings read alike, the source gives them in different places.

Columns and labels:
[1] = system: patients with type 2 diabetes
[2] = system: patients with type 2 diabetes; remark: listed apart in the source

dulaglutide: approved GLP-1 analog (Trulicity)
HbA1c change from baseline ([1]; 0.75 and 1.5 mg at 26 weeks): −1.25 to −1.46% | Participants achieving HbA1c <7.0% ([1]; 0.75 and 1.5 mg at 26 weeks): 63–72% | Body weight change from baseline ([2]; 0.75 and 1.5 mg doses at 26 weeks): −1.0 to −1.5 kg

liraglutide: approved GLP-1 analog (Victoza, Saxenda) (HAEGTFTSDVSSYLEGQAAKEFIAWLVRGRG; chains of the INN, looked up)
Participants achieving HbA1c <7.0% ([1]; 1.2 and 1.8 mg at 52 weeks): 43–51% | Body weight change (weight loss) ([2]; 1.2 and 1.8 mg at 52 weeks): −2.05 to −2.45 kg
